Experimental data reported in patent publication US11447472B2, “Polymorophs of 5-aza-4′-thio-2′-deoxycytidine” (Southern Research Institute, priority 2020, dated 2022).
Values joined by “and” are separate entries in the source; they are usually repeats but may differ in a detail not shown here. Identical values can stand only once. Like-named read-outs stand apart in the source and are kept apart here.

Tests used:
[1] = tested on: HL-60 cell lines; experiment: CellTiter-Glo cell viability, HL-60; assay type: cell-based; conditions: HL-60, 3 days, FIG. 24
Procedure: (§1) K562 and HL-60 cell lines were cultured and maintained in RPMI (10% FBS, 1% Penicillin-Streptomycin) medium at 37° C., 95% Air, and 5% CO2. K562 and HL-60 cell lines were each seeded in 96-well plates at a density of 3000 cells/well (90 μl). Form A and SM were treated in each well at a final concentration of 10 μM by treating 10 μl using 3-fold dilution. The cells were incubated for 3 days at 37° C., 95% Air, and 5% CO2. 96-well plates were placed in room temperature for 30 minutes in order to equilibrate. Then, 100 μl of CellTiter-Glo® Luminescent Cell Viability Assay Reagent was added in 96-wells and incubated for 10 minutes in room temperature. Luminescence was measured using Luminometer and IC50 value was analyzed using GraphPrism.

[2] = Pharmacokinetics of capsules in male SD rats; conditions: 2 mg/kg; for AUC(0-inf) / AUC(0-t) / Cmax / MRT inf / half-life / Tmax: po; for AUC(0-inf): AUCInf; for AUC(0-t): AUClast; for MRT inf: MRTInf_obs
[3] = Dissolution rate (IDR) at pH 1.2, 6.5 and 5.0; assay type: physicochemical
[4] = tested on: K562 cell lines; experiment: CellTiter-Glo cell viability, K562; assay type: cell-based; conditions: K562, 3 days, FIG. 23
Procedure: as §1

[5] = tested on: blood cancer cells (Mv4-11); experiment: IC50 in blood cancer cells (Mv4-11) at different exposure times; assay type: cell-based; conditions: Homo sapiens
Procedure: Furthermore, the half maximal inhibitory concentration (IC50) was measured at 1 hr, 2 hr, and 4 hr after the blood cancer cells (Mv4-11) were treated with aza-T-dCyd starting material (SM). […] In addition, the measured IC50 at 4 hr was about 80 nM, which was much higher than the expected value of 20 nM. Therefore, it was confirmed that the efficiency of aza-T-dCyd starting material (SM) greatly decreases as the exposure time of the compound to the cells increases.

[6] = tested on: tumor; experiment: Tumor size (in vivo luciferase activity) in female NOD-SCID mice; conditions: for tumor size (in vivo luciferase activity): 5 days on, 2 days rest, 9 days rest, repeated, FIG. 17
Procedure: Aza-T-dCyd starting material (SM) was administered to […] female NOD-SCID mice splitting into four groups. Group 1 was a vehicle control group. In group 2, 2.0 mg/kg of aza-T-dCyd starting material (SM) was administered once a day, and in group 3, 1.0 mg/kg of aza-T-dCyd starting material (SM) was administered twice a day. In groups 2 and 3, aza-T-dCyd starting material (SM) in the above amounts was administered for 5 days followed by 2 days as a rest period, and was administered again for another 5 days followed by 9 days as another rest period. This cycle was repeated. In group 4, 1.0 mg/kg of aza-T-dCyd starting material (SM) was administered once a day for five days followed by 2 days as a rest period, and this cycle was repeated.

[7] = 0.25 h, capsule (8:92 w/w with microcrystalline cellulose), male SD rat
[8] = 0.25 h, capsule, mean of two male SD rats
[9] = 0.5 h, capsule, mean of two male SD rats
[10] = capsule, mean of two male SD rats
[11] = male, SD, rat, plasma, Mean, capsule, mean of two male SD rats
[12] = male, SD, rat, plasma, individual rat, capsule, male SD rat

Nc1ncn([C@H]2C[C@H](O)[C@@H](CO)S2)c(=O)n1 [Form A, 5-Aza-4′-thio-2′-deoxycytidine]
IC50 value lower than SM [1]: about 5%
Concentration (plasma), individual rat [2, 7]: 77.2 ng/mL and 511 ng/mL
Concentration (plasma), Mean [2, 8]: 294 ng/mL
Concentration (plasma), individual rat ([2]; 0.5 h, capsule, male SD rat): 254 ng/mL and 721 ng/mL
Concentration (plasma), Mean [2, 9]: 488 ng/mL
Concentration (plasma), individual rat ([2]; 1 h, capsule, male SD rat): 815 ng/mL and 912 ng/mL
Concentration (plasma), Mean ([2]; 1 h, capsule, mean of two male SD rats): 864 ng/mL
Concentration (plasma), individual rat ([2]; 2 h, capsule, male SD rat): 677 ng/mL and 645 ng/mL
Concentration (plasma), Mean ([2]; 2 h, capsule, mean of two male SD rats): 661 ng/mL
Concentration (plasma), individual rat ([2]; 4 h, capsule, male SD rat): 556 ng/mL and 420 ng/mL
Concentration (plasma), Mean ([2]; 4 h, capsule, mean of two male SD rats): 488 ng/mL
Concentration (plasma), individual rat ([2]; 6 h, capsule, male SD rat): 397 ng/mL and 307 ng/mL
Concentration (plasma), Mean ([2]; 6 h, capsule, mean of two male SD rats): 352 ng/mL
Concentration (plasma), individual rat ([2]; 8 h, capsule, male SD rat): 261 ng/mL and 210 ng/mL
Concentration (plasma), Mean ([2]; 8 h, capsule, mean of two male SD rats): 236 ng/mL
Concentration (plasma), individual rat ([2]; 24 h, capsule, male SD rat): 6.71 ng/mL and 4.29 ng/mL
Concentration (plasma), Mean ([2]; 24 h, capsule, mean of two male SD rats): 5.50 ng/mL
AUCInf, individual rat ([2]; capsule, male SD rat): 6079 ng·h/mL and 5446 ng·h/mL
AUC_%Extrap_obs, individual rat ([2]; capsule, male SD rat): 0.485% and 0.329%
AUClast, individual rat ([2]; capsule, male SD rat): 6050 ng·h/mL and 5428 ng·h/mL
AUClast/D, individual rat ([2]; capsule, male SD rat): 3020 ng·h/mL per mg/kg and 2710 ng·h/mL per mg/kg
Cmax, individual rat ([2]; capsule, male SD rat): 815 ng/mL and 912 ng/mL
MRTInf_obs, individual rat ([2]; capsule, male SD rat): 5.40 h and 4.83 h
T1/2, individual rat ([2]; capsule, male SD rat): 3.05 h and 2.89 h
Tmax, individual rat ([2]; capsule, male SD rat): 1.00 h
AUC values higher than SM ([2]; capsule, male SD rats): about 30%
Cmax value relative to SM ([2]; capsule, male SD rats, higher than SM): about 1.3 times
AUCInf, Mean [2, 10]: 5763 ng·h/mL
AUC_%Extrap_obs, Mean [2, 10]: 0.407%
AUClast, Mean [2, 10]: 5739 ng·h/mL
AUClast/D, Mean [2, 10]: 2870 ng·h/mL per mg/kg
Cmax, Mean [2, 10]: 864 ng/mL
MRTInf_obs, Mean [2, 10]: 5.11 h
T1/2, Mean [2, 10]: 2.97 h
Tmax, Mean [2, 10]: 1.00 h
IDR ([3]; FaSSIF, pH 6.5): 2.2 ± 0.06 mg/mL/Cm^2/min
IDR ([3]; FeSSIF, pH 5.0): 4.6 ± 0.07 mg/mL/Cm^2/min
IDR ([3]; SGF, pH 1.2): 7.4 ± 0.21 mg/mL/Cm^2/min
IC50 value lower than SM [4]: about 5%

Nc1ncn([C@H]2C[C@H](O)[C@@H](CO)S2)c(=O)n1 [SM, 5-Aza-4′-thio-2′-deoxycytidine]
Concentration (plasma), individual rat [2, 7]: 29.1 ng/mL and 64.9 ng/mL
Concentration (plasma), Mean [2, 8]: 47.0 ng/mL
Concentration (plasma), individual rat ([2]; 0.5 h, capsule, male SD rat): 123 ng/mL and 243 ng/mL
Concentration (plasma), Mean [2, 9]: 183 ng/mL
Concentration (plasma), individual rat ([2]; 1 h, capsule, male SD rat): 321 ng/mL and 610 ng/mL
Concentration (plasma), individual rat ([2]; 2 h, capsule, male SD rat): 613 ng/mL
Concentration (plasma), individual rat ([2]; 4 h, capsule, male SD rat): 442 ng/mL
Concentration (plasma), individual rat ([2]; 6 h, capsule, male SD rat): 283 ng/mL
Concentration (plasma), individual rat ([2]; 8 h, capsule, male SD rat): 199 ng/mL
Concentration (plasma), individual rat ([2]; 24 h, capsule, male SD rat): 2.65 ng/mL and 4.48 ng/mL
AUCInf, individual rat ([2]; capsule, male SD rat): 4780 ng·h/mL
AUC_%Extrap_obs, individual rat ([2]; capsule, male SD rat): 0.255% and 0.402%
AUClast, individual rat ([2]; capsule, male SD rat): 4761 ng·h/mL
AUClast/D, individual rat ([2]; capsule, male SD rat): 2030 ng·h/mL per mg/kg and 2380 ng·h/mL per mg/kg
Cmax, individual rat ([2]; capsule, male SD rat): 613 ng/mL
MRTInf_obs, individual rat ([2]; capsule, male SD rat): 5.23 h
T1/2, individual rat ([2]; capsule, male SD rat): 2.98 h
AUC_%Extrap_obs, Mean [2, 10]: 0.329%
AUClast/D, Mean [2, 10]: 2210 ng·h/mL per mg/kg
concentration at 1 h ([2]; male, SD, rat, plasma, oral, Concentration (plasma), Mean, 1 h, capsule, mean of two male SD rats): 466 ng/mL
concentration at 2 h ([2]; male, SD, rat, plasma, oral, Concentration (plasma), Mean, 2 h, capsule, mean of two male SD rats): 657 ng/mL
concentration at 4 h ([2]; male, SD, rat, plasma, oral, Concentration (plasma), Mean, 4 h, capsule, mean of two male SD rats): 415 ng/mL
concentration at 6 h ([2]; male, SD, rat, plasma, oral, Concentration (plasma), Mean, 6 h, capsule, mean of two male SD rats): 272 ng/mL
concentration at 8 h ([2]; male, SD, rat, plasma, oral, Concentration (plasma), Mean, 8 h, capsule, mean of two male SD rats): 178 ng/mL
concentration at 24 h ([2]; male, SD, rat, plasma, oral, Concentration (plasma), Mean, 24 h, capsule, mean of two male SD rats): 3.57 ng/mL
concentration at 2 h ([2]; male, SD, rat, plasma, oral, Concentration (plasma), individual rat, 2 h, capsule, male SD rat): 700 ng/mL
concentration at 4 h ([2]; male, SD, rat, plasma, oral, Concentration (plasma), individual rat, 4 h, capsule, male SD rat): 387 ng/mL
concentration at 6 h ([2]; male, SD, rat, plasma, oral, Concentration (plasma), individual rat, 6 h, capsule, male SD rat): 261 ng/mL
concentration at 8 h ([2]; male, SD, rat, plasma, oral, Concentration (plasma), individual rat, 8 h, capsule, male SD rat): 156 ng/mL
AUC(0-inf) [2, 11]: 4430 ng·h/mL
AUC(0-inf) [2, 12]: 4080 ng·h/mL
AUC(0-t) [2, 11]: 4410 ng·h/mL
AUC(0-t) [2, 12]: 4060 ng·h/mL
Cmax [2, 11]: 657 ng/mL
Cmax [2, 12]: 700 ng/mL
MRT inf [2, 11]: 5.15 h
MRT inf [2, 12]: 5.06 h
half-life ([2]; male, SD, rat, plasma, T1/2, Mean, capsule, mean of two male SD rats): 171 min
half-life ([2]; male, SD, rat, plasma, T1/2, individual rat, capsule, male SD rat): 163 min
Tmax [2, 11]: 2 h
Tmax [2, 12]: 2 h
IC50 ([5]; Mv4-11, 1 hr after treatment, read-out: measured IC50 at 1 hr): ~160 nM
IC50 ([5]; Mv4-11, 2 hr after treatment, read-out: measured IC50 at 2 hr): ~120 nM
IC50 ([5]; Mv4-11, 4 hr after treatment, read-out: measured IC50 at 4 hr): ~80 nM
IC50 ([5]; Mv4-11, expected from the IC50 measured at 1 hr, read-out: expected IC50 at 2 hr): 80 nM
IC50 ([5]; Mv4-11, expected from the IC50 measured at 1 hr, read-out: expected IC50 at 4 hr): 20 nM
tumor size on day 43 ([6]; Group 2 (2.0 mg/kg, once a day) compared with 'Group 1 (1.0 mg/kg, twice a day)', FIG. 18): significantly smaller
tumor size (in vivo luciferase activity) ([6]; Group 2: 2.0 mg/kg once a day): most greatly suppressed
tumor size (in vivo luciferase activity) ([6]; Group 3: 1.0 mg/kg twice a day): sharply increased after 40 days
